Entries after “also recorded” stand apart in the source; their conditions may differ. Where two headings read alike, the source gives them in different places. [ ]: non-standard residue; d: D form.
Assays:
[1] = test system: Aβ, IAPP and TTR amyloidosis / toxic oligomer; assay: Inhibitory activity summary: inhibition of aggregation and/or binding of toxic oligomer; format: biochemical; conditions: for inhibition of aggregation (FIG. 6): Aβ, IAPP, TTR panels; for inhibitor quality compared with ldas90: FIG. 6 / FIG. 7
Experimental: In addition, FIG. 5 contains ‘control’ designs aimed at reverse engineering the α1 design, which is presented in more detail in Example 3. […] These designs are both linear and cyclic peptides designed to be hairpins.
The “control” designs were tested as general inhibitors against the Amyloid β 1-42 peptide (Aβ) (panel A), the islet amylin polypeptide (IAPP, or amylin, which is implicated in type 2 diabetes) (panel B), and transthyretin (TTR) (panel C) amyloidosis (FIG. 6). […] As described in Example 1, a Thioflavin T (ThT) fluorescence assay was used to monitor Aβ and IAPP aggregation. A Congo Red dye-binding assay was used to monitor TTR fibrillization. For inhibition against Aβ, peptides were co-incubated at 4-fold excess of Aβ at RT in neutral pH buffer containing ThT. […] For inhibition against IAPP, peptides were co-incubated at 8-fold excess of IAPP at 37° C. in neutral pH buffer containing 20 μM ThT. For inhibition against TTR, peptides were co-incubated at 10-fold excess of monomeric TTR.
The data in FIG. 6 were normalized to ThT fluorescence of the negative (uninhibited) control (black squares). Inhibition traces are ordered vertically according to sequence identity to α1 (see Table 1). Sigmoidal fits to data are included. Controls are identical throughout a single panel, and traces for inhibition samples are colored while the uninhibited aggregation profiles are in black.

toxic oligomer = assay: Binding of toxic oligomer by peptide immobilized to agarose beads (Examples 2 and 3)
Experimental: Peptide designs were immobilized to the Pierce Amino Link resin following the manufacturer's instructions. Peptides were immobilized in a volume of 200 μL of coupling buffer (100 mM sodium phosphate, 150 mM sodium chloride, pH 7.2) and 2 μL cyanoborohydride solution (5 M sodium cyanoborohydride in 1 M NaOH) at a concentration of 358 μM overnight at 4° C. Any residual active sites were blocked with 400 μL quenching buffer (1 M tris hydrochloride, pH 7.4) and 4 μL cyanoborohydride solution for 4 hours at 25° C. Binding experiments were performed from 200 μL amyloid solution (5 μM Aβ or 20 μM TTR (monomer) diluted to the desired concentration in coupling buffer), which was allowed to bind to the peptide-bound agarose beads for 2 h at 25° C. The solution was then collected by centrifugation (flow through, FT). The beads were resuspended in 300 μL coupling buffer, vortexed to obtain an uniform slurry, and the solution was again collected by centrifugation (wash 1, W1). The wash step was performed an additional five times (W2-W6). One final wash step was performed but after resuspending the resin, the solution was allowed to sit for 5 minutes before centrifugation (W7). The resin was next resuspended in 100 μL 2M guanidine hydrochloride, incubated for 5 minutes at room temperature, then collected as before. This was performed twice (E1-E2). The resin was washed again with 300 μL coupling buffer (W8) followed by two elution steps with 6M guanidine hydrochloride (E3-E4). One final wash step was performed with 300 μL coupling buffer (W9). All collected eluents were analyzed by applying triplicate 1 μL spots to nitrocellulose, and then performing standard dot blot analysis as described by Kayed et al. (9) with an anti-TTR (sc-13098, Santa Cruz Biotechnology, Santa Cruz, Calif.) or anti-Aβ (ab39377; Abeam Inc, Cambridge, Mass.) primary antibody diluted 1:1.000 in 5% or 10% nonfat milk, respectively.
Three α-sheet designs are addressed in Example 1, but many more have been evaluated using these same assays and structural methods. FIG. 5 contains a list of other designed α-sheet peptides, both linear and cyclic (specifically peptides #3-5 and #8-9), as well as other control, non-α-sheet designs (peptides #17-18, 20). In addition, FIG. 5 contains ‘control’ designs aimed at reverse engineering the α1 design, which is presented in more detail in Example 3. […] Random primary sequences of amino acids are active in the polypeptides of the invention; these same primary sequences are not active if the polypeptide is provided in an entirely L-amino acid peptide or if the L/D amino acids are randomly distributed within the polypeptide such that they are not alternating (i.e. if they are not polypeptides according to the invention). […] They also all inhibit aggregation and/or bind the toxic oligomer. Some of the polypeptides are insoluble and the solution assay can't be performed, but they do bind the targeted toxic oligomer when they are immobilized to agarose beads to promote solubilization. • Thus, this provides further evidence that the primary amino acid sequence per se is not determining structure and activity, the L/D patterning is. However, the sequence modulates the activity and solubility properties. • Both cyclic and linear designs with different sequences form α-sheet polypeptides, inhibit aggregation, and bind the toxic oligomer. […] (See peptides #1 and #7.) Note, however, that the charges can modulate the level of activity. • Next, consider all 14 designed peptides with the L/D turn template, they are all active. Some have issues with solubility but they all form α-sheet and are active amyloid inhibitors in solution and/or binding of the toxic oligomer. These designs are both linear and cyclic peptides designed to be hairpins. The sequence identity relative to ldas90 (peptide #1) ranges from 9-91% across these 14 designs with an average of 43%. […]

transthyretin (TTR) = target: T1, transthyretin (TTR) (Homo sapiens, UniProt P02766); assay: TTR fibrillization assay (Congo red binding); format: biochemical; conditions: peptide without regard to TTR; prevents solution TTR assay
T1 construct: purchased Lee Biosolutions, St. Louis Mo; 496-11
Experimental: Aliqouts of transthyretin (TTR) (496-11; Lee Biosolutions, St. Louis Mo.) were made from a 1 mg/mL solution 20 mM ammonium carbonate, pH 8. Aliquots were lyophilized and stored at −18° C. Prior to use, TTR was dissolved to 80 μM (monomer) in acetate buffer (50 mM potassium acetate, 100 mM potassium chloride pH 4.5) and sonicated for 10 minutes. The stock solution was centrifuged before use. Peptide designs were added to stock TTR to a final TTR concentration of 40 μM (monomer) in acetate buffer (pH 4.5) in 500 μL microcentrifuge tubes, which were incubated at 37° C. Periodically, samples were collected from the TTR:peptide mixture by briefly centrifuging, and then carefully pipetting the solution up and down prior to withdrawing a 10 μL sample and diluting it in 190 μL of 10 μM Congo red in an individual well of a 96-well assay plate. Each measurement was performed in triplicate. Absorbance measurements were taken at 477 and 540 nm. Relative Congo red binding was determined using the method of Klunk et al. using the relationship: rCb=(Abs540/25,295)−(Abs477/46,306) (40). All datapoints were normalized to the value recorded for TTR alone pH 4.5 at 48 hrs.
The “control” designs were tested as general inhibitors against the Amyloid β 1-42 peptide (Aβ) (panel A), the islet amylin polypeptide (IAPP, or amylin, which is implicated in type 2 diabetes) (panel B), and transthyretin (TTR) (panel C) amyloidosis (FIG. 6). […] As described in Example 1, a Thioflavin T (ThT) fluorescence assay was used to monitor Aβ and IAPP aggregation. A Congo Red dye-binding assay was used to monitor TTR fibrillization. For inhibition against Aβ, peptides were co-incubated at 4-fold excess of Aβ at RT in neutral pH buffer containing ThT. Note that the results for α1 differ somewhat from what are included in Example 1 because the assay conditions were altered slightly to slow the process down to favor oligomerization of Aβ (rather than fibril elongation) by lowering the temperature to 25° C. […] For inhibition against IAPP, peptides were co-incubated at 8-fold excess of IAPP at 37° C. in neutral pH buffer containing 20 μM ThT. For inhibition against TTR, peptides were co-incubated at 10-fold excess of monomeric TTR.

Substance	Inhibits Aggregation and/or binds oligomer? [1]	inhibition of aggregation (FIG. 6) [1]	binds toxic oligomer when immobilized (toxic oligomer)	Congo red binding by the peptide itself (transthyretin (TTR))	other results
RGEmNlSwMNEYSGWtMnLkMGR [peptide #7]	demonstrate activity				
Ac-RGEMNLSWMNEYSGWTMNLKMGR-NH2 (not fully specified (residues 4, 6, 8, 16, 18, 20); printed as Ac-RGEMNLSWMNEYSGWTMNLKMGR-NH2) [peptide #20, all L-amino acid version of ldas90]	no				Inhibits Aggregation and/or binds oligomer? ([1]; listed as llas90): inactive
Ac-RGNwNeSkMNEYSGWmLmLtMGR-NH2 (Ac-RGN[dW]N[dE]S[dK]MNEYSGW[dM]L[dM]L[dT]MGR-NH2; SMILES CSCC[C@H](NC(=O)[C@@H](CCCCN)NC(=O)[C@H](CO)NC(=O)[C@@H](CCC(=O)O)NC(=O)[C@H](CC(N)=O)NC(=O)[C@@H](Cc1c[nH]c2ccccc12)NC(=O)[C@H](CC(N)=O)NC(=O)CNC(=O)[C@H](CCCNC(=N)N)NC(C)=O)C(=O)N[C@@H](CC(N)=O)C(=O)N[C@@H](CCC(=O)O)C(=O)N[C@@H](Cc1ccc(O)cc1)C(=O)N[C@@H](CO)C(=O)NCC(=O)N[C@@H](Cc1c[nH]c2ccccc12)C(=O)N[C@H](CCSC)C(=O)N[C@@H](CC(C)C)C(=O)N[C@H](CCSC)C(=O)N[C@@H](CC(C)C)C(=O)N[C@@H](C(=O)N[C@@H](CCSC)C(=O)NCC(=O)N[C@@H](CCCNC(=N)N)C(N)=O)[C@H](C)O) [peptide #6]	yes	good inhibitor	binds the toxic oligomer		inhibitor quality compared with ldas90 [1]: as good as ldas90 (peptide #1) with capped ends; also recorded: better than ldas90 with charged ends (peptide #7); inhibitor quality compared with ldas90 ([1]; listed as Control5): as active; Inhibits Aggregation and/or binds oligomer? ([1]; listed as Control5): active
Ac-WRPwAiDgMNTBKQRkAsVyLQP-NH2 [peptide #13]	yes		do bind toxic oligomer	bind Congo Red	Inhibits Aggregation and/or binds oligomer? ([1]; listed as Control 4): active
Ac-MNWESkGEwIRMRYGtmLSNGnM-NH2 (Ac-MNWES[dK]GE[dW]LRMRYG[dT][dM]LSNG[dN]M-NH2; SMILES CSCC[C@H](NC(=O)[C@@H](CC(N)=O)NC(=O)CNC(=O)[C@H](CC(N)=O)NC(=O)[C@H](CO)NC(=O)[C@H](CC(C)C)NC(=O)[C@@H](CCSC)NC(=O)[C@H](NC(=O)CNC(=O)[C@H](Cc1ccc(O)cc1)NC(=O)[C@H](CCCNC(=N)N)NC(=O)[C@H](CCSC)NC(=O)[C@H](CCCNC(=N)N)NC(=O)[C@H](CC(C)C)NC(=O)[C@@H](Cc1c[nH]c2ccccc12)NC(=O)[C@H](CCC(=O)O)NC(=O)CNC(=O)[C@@H](CCCCN)NC(=O)[C@H](CO)NC(=O)[C@H](CCC(=O)O)NC(=O)[C@H](Cc1c[nH]c2ccccc12)NC(=O)[C@H](CC(N)=O)NC(=O)[C@H](CCSC)NC(C)=O)[C@H](C)O)C(N)=O) [peptide #19]	no		does not	bind Congo Red	Inhibits Aggregation and/or binds oligomer? ([1]; listed as Control2): inactive
Ac-RGEaWmYiKNNLSETmMsNmWGR-NH2 [peptide #12]	yes	inhibits aggregation		bind Congo Red	Inhibits Aggregation and/or binds oligomer? ([1]; listed as Control6): active; binds toxic oligomer when immobilized (toxic oligomer; listed as Control 6): do bind toxic oligomer; binds toxic oligomer when immobilized (toxic oligomer; listed as Control6): binds the toxic oligomer
Ac-AQQiEcItNVWDKEItMyFnVSE-NH2 (Ac-AQQ[dI]E[dC]L[dT]NVWDKEL[dT]M[dY]F[dN]VSE-NH2; not fully specified) [peptide #11]	yes	weak	do bind toxic oligomer	bind Congo Red	Inhibits Aggregation and/or binds oligomer? ([1]; listed as Control 3): active

From US9896487B2, “Amyloidosis-inhibiting polypeptides and their use” (UNIVERSITY OF WASHINGTON THROUGH ITS CENTER FOR …, priority 2013, dated 2018)
